Experimental data published in patent US20120088661A1, “FUNGICIDAL MIXTURES” (BASF SE, priority 2009, published 2012).
Read-outs that look alike come from different tables or passages of the source.

Tests used:
Phytophthora infestans = assay: microbe, parasite or virus in culture; assay type: cell-based; details: for inhibition of growth at 0.016 ppm: read-out: Observed effect, 0.016 ppm; for inhibition of growth at 1 ppm: read-out: Observed effect, 1 ppm
Botrytis cinerea [1] = assay: Use Example M2: activity against the gray mold pathogen Botrytis cinerea in the microtiter test (Botrci); assay type: cell-based
Colleotrichum truncatum = assay: Use Example M9: activity against Colleotrichum truncatum in the microtiter test (Colltr); assay type: cell-based
Septoria glycines = assay: Use Example M8: activity against Septoria glycines in the microtiter test (Septgl); assay type: cell-based
Puccinia recondita = assay: Use Example G3: greenhouse, protective activity against Puccinia recondita on wheat (brown rust of wheat) (Puccrt P1); assay type: in vivo, Puccinia recondita on wheat seedlings
Procedure: The active compounds were prepared separately or jointly as a stock solution with 25 mg of active compound which was made up to 10 ml using a mixture of acetone and/or DMSO and the emulsifier Wettol EM 31 (wetting agent having emulsifying and dispersing action based on ethoxylated alkylphenols) in a volume ratio of solvent:emulsifier of 99:1. The mixture was then made up with water to 100 ml. This stock solution was diluted with the solvents/emulsifier/water mixture described to give the active compound concentrations stated below. Alternatively, the active compounds were used as commercial finished formulation and diluted with water to the stated active compound concentration. […]
The visually determined values for the percentage of infected leaf area were initially converted into a mean value and then converted into efficacies in % of the untreated control. […] The expected efficacies for the active compound combinations were determined using Colby's formula (Colby, S. R. “Calculating synergistic and antagonistic responses of herbicide combinations”, Weeds, 15, pp. 20-22, 1967) and compared to the observed efficacies.
Leaves of potted wheat seedlings were sprayed to run off point with an aqueous suspension having the active compound concentration stated below. […] The extent of rust fungus development on the leaves was then determined visually.

Phakopsora pachyrhizi = assay: Use Example G4: greenhouse, curative activity against soybean rust caused by Phakopsora pachyrhizi (Phakpa K4); assay type: in vivo, Phakopsora pachyrhizi on soybean seedlings
Procedure: (§1) The active compounds were prepared separately or jointly as a stock solution with 25 mg of active compound which was made up to 10 ml using a mixture of acetone and/or DMSO and the emulsifier Wettol EM 31 (wetting agent having emulsifying and dispersing action based on ethoxylated alkylphenols) in a volume ratio of solvent:emulsifier of 99:1. The mixture was then made up with water to 100 ml. This stock solution was diluted with the solvents/emulsifier/water mixture described to give the active compound concentrations stated below. Alternatively, the active compounds were used as commercial finished formulation and diluted with water to the stated active compound concentration. The active compound orysastrobin was used as a commercially available formulation, and diluted with water with reference to the active compound.
(§2) The visually determined values for the percentage of infected leaf area were initially converted into a mean value and then converted into efficacies in % of the untreated control. An efficacy of 0 means the same degree of infection as in the untreated control, an efficacy of 100 means 0% infection. The expected efficacies for the active compound combinations were determined using Colby's formula (Colby, S. R. “Calculating synergistic and antagonistic responses of herbicide combinations”, Weeds, 15, pp. 20-22, 1967) and compared to the observed efficacies.
Leaves of potted soybean seedlings were inoculated with a spore suspension of soybean rust (Phakpsora pachyrhizi). The pots were then placed in a chamber of high atmospheric humidity (90 to 95%) and 20 to 24° C. for 24 hours. During this time, the spores germinated and the germ tubes penetrated into the leaf tissue. The infected plants were then cultivated further in a greenhouse at temperatures between 23 and 27° C. and 60 to 80% relative atmospheric humidity. After three days, the plants were sprayed to run off point with the active compound solution described above at the active compound concentration stated below. After the spray coating had dried on, the test plants were cultivated in a greenhouse at temperatures between 23 and 27° C. and 60 to 80% relative atmospheric humidity for a further 10 days. The extent of the rust fungus development on the leaves was then determined visually in %.

Septoria tritici = assay: Use Example G5: greenhouse, protective activity against Septoria leaf blotch of wheat caused by Septoria tritici (Septtr P1); assay type: in vivo, Septoria tritici on wheat seedlings
Procedure: as §1, §2
Leaves of potted wheat seedlings were sprayed to run off point with an aqueous suspension having the active compound concentration stated below. 24 hours after the spray coating had dried on, they were inoculated with an aqueous spore suspension of Septoria tritici. The test plants were then placed in a greenhouse at temperatures between 18 and 22° C. and a relative atmospheric humidity close to 100% for four days and then at temperatures between 18 and 22° C. and an atmospheric humidity of about 70%. After 21 days, the extent of the development of the disease was determined visually in % infection of the total leaf area.

Alternaria solani = assay type: in vivo, Alternaria solani on tomato plants; details: 16 ppm
Botrytis cinerea [2] = assay: Use Example G2: greenhouse, activity against grey mold on bell pepper leaves caused by Botrytis cinerea, 1 day protective application (Botrci P1); assay type: in vivo, Botrytis cinerea on bell pepper seedlings
Procedure: as §1, §2
Bell pepper seedlings were, after 2-3 leaves were well developed, sprayed to run off point with an aqueous suspension having the active compound concentrations stated below. The next day, the treated plants were inoculated with a spore suspension of Botrytis cinerea in a 2% biomalt solution. The test plants were then placed in a dark climatized chamber at 22 to 24° C. and high atmospheric humidity. After 5 days, the extent of the fungal infection on the leaves could be determined visually in %.

[3] = Septoria glycines, 0.016 ppm, read-out: Observed effect
[4] = Septoria glycines, read-out: Observed effect
[5] = Septoria glycines, 0.063 ppm, read-out: Observed effect
[6] = Septoria glycines, 0.25 ppm, read-out: Observed effect
[7] = Septoria glycines, 1 ppm, read-out: Observed effect

2-[trans-3-(2-chlorophenyl)-2-(3,4-difluorophenyl)oxiranylmethyl]-2H-[1,2,4]triazole-3-thiol [Example I-3]
Observed effect (Phytophthora infestans; 63 ppm): 31% | Observed effect (Botrytis cinerea [1]; 4 ppm): 8% | Observed effect (Botrytis cinerea [1]; 63 ppm): 25%

CC(C)NC(=O)N1CC(=O)N(c2cc(Cl)cc(Cl)c2)C1=O [iprodion]
Observed effect (Colleotrichum truncatum; 1 ppm): 9%

COCC(=O)N(c1c(C)cccc1C)C(C)C(=O)OC (stereo not drawn) [II-14, metalaxyl]
inhibition of growth at 4 ppm (Septoria glycines; Septoria glycines, 4 ppm, read-out: Observed effect): 18%

CCNC(=O)NC(=O)/C(C#N)=N/OC [cymoxanil]
inhibition of growth at 16 ppm (Septoria glycines; Septoria glycines, 16 ppm, read-out: Observed effect): 27%

O=C(Nc1ccccc1-c1ccc(Cl)cc1)c1cccnc1Cl [II-24, boscalid]
inhibition of growth at 0.016 ppm (Septoria glycines; [3]): 10% | inhibition of growth at 0.04 ppm (Septoria glycines; Septoria glycines, 0.04 ppm, read-out: Observed effect): 9% | inhibition of growth at 16 ppm (Phytophthora infestans; Phytophthora infestans, read-out: Observed effect, 16 ppm): 20% | Observed effect (Puccinia recondita; 1 ppm): 13%

CO/N=C(/C1=NOCCO1)c1ccccc1Oc1ncnc(Oc2ccccc2Cl)c1F [II-57, fluoxastrobin]
Observed effect (Phakopsora pachyrhizi; 1 ppm): 15%

N#Cc1sc2c(=O)c3ccccc3c(=O)c=2sc1C#N [II-47, dithianon]
inhibition of growth at 0.004 ppm (Septoria glycines; [4]): 3% | inhibition of growth at 0.016 ppm (Septoria glycines; [3]): 37% | Observed effect (Colleotrichum truncatum; 0.016 ppm): 3%

Fc1ccc([C@]2(Cn3cncn3)O[C@H]2c2ccccc2Cl)cc1 (racemic) [II-1, epoxiconazole]
inhibition of growth at […] (Septoria glycines; [5]): 2%

Cc1ccccc1[C@@H]1O[C@]1(Cn1nc[nH]c1=S)c1ccc(F)c(F)c1 (relative stereo) [Example I-2, 2-[trans-2-(3,4-difluorophenyl)-3-o-tolyloxiranylmethyl]-2,4-dihydro-[1,2,4]triazole-3-thione]
Observed effect (Septoria glycines; 63 ppm): 40% | Observed effect (Colleotrichum truncatum; 63 ppm): 38%

COc1ccc(/C(=C\C(=O)N2CCOCC2)c2ccc(F)cc2)cc1OC [flumorph]
Observed effect (Septoria glycines; 16 ppm): 21%

CC1(C)CCC(Cc2ccc(Cl)cc2)C1(O)Cn1cncn1 (stereo not drawn) [II-2, metconazole]
inhibition of growth at […] (Septoria glycines; [6]): 19%

2-[trans-2-(3,4-difluorophenyl)-3-(2-trifluoromethylphenyl)oxiranylmethyl]-2,4-dihydro-[1,2,4]triazole-3-thione [Example I-4]
Observed effect (Septoria glycines; 16 ppm): 5% | Observed effect (Septoria glycines; 63 ppm): 23% | Observed effect (Phytophthora infestans; 63 ppm): 31% | Observed effect (Colleotrichum truncatum; 63 ppm): 26%

COC(=O)C(C)N(C(=O)Cc1ccccc1)c1c(C)cccc1C (stereo not drawn) [benalaxyl]
Observed effect (Septoria tritici; 250 ppm): 0% | Observed effect (Alternaria solani): 2%

N#CSc1ncnn1C[C@]1(c2ccc(F)cc2F)O[C@H]1c1ccccc1Cl (relative stereo) [Example I-8, 1-[trans-3-(2-chlorophenyl)-2-(2,4-difluorophenyl)oxiranylmethyl]-5-thiocyanato-1H-[1,2,4]triazole]
Observed effect (Phytophthora infestans; 4 ppm): 7% | Observed effect (Botrytis cinerea [1]; 16 ppm): 19%

OC(c1ccc(Cl)cc1)(c1cncnc1)c1ccccc1Cl (stereo not drawn) [fenarimol]
inhibition of growth at 0.016 ppm (Septoria glycines; [3]): 11% | inhibition of growth at 1 ppm (Septoria glycines; [7]): 39% | inhibition of growth at 0.016 ppm (Phytophthora infestans; Phytophthora infestans): 5% | inhibition of growth at 1 ppm (Phytophthora infestans; Phytophthora infestans): 28%

CC(C)(C)C(O)(CCc1ccc(Cl)cc1)Cn1cncn1 (stereo not drawn) [II-3, tebuconazole]
Observed effect (Botrytis cinerea [2]; 1 ppm): 0%

COC(=O)N(OC)c1ccccc1COc1ccn(-c2ccc(Cl)cc2)n1 [II-9, pyraclostrobin]
inhibition of growth at 0.016 ppm (Septoria glycines; [3]): 69% | inhibition of growth at 0.016 ppm (Phytophthora infestans; Phytophthora infestans): 13% | Observed effect (Colleotrichum truncatum; 0.016 ppm): 7% | Observed effect (Botrytis cinerea [1]; 0.016 ppm): 8%

CSc1ncnn1C[C@]1(c2ccc(F)c(F)c2)O[C@H]1c1ccccc1Cl (relative stereo) [Example I-5, 1-[trans-3-(2-chlorophenyl)-2-(3,4-difluorophenyl)oxiranylmethyl]-5-methylsulfanyl-1H-[1,2,4]triazole]
Observed effect (Botrytis cinerea [1]; 16 ppm): 9%

N#Cc1c[nH]cc1-c1cccc2c1OC(F)(F)O2 [II-38, fludioxonil]
inhibition of growth at 1 ppm (Phytophthora infestans; Phytophthora infestans): 27%

CC(Cc1ccc(C(C)(C)C)cc1)CN1C[C@@H](C)O[C@@H](C)C1 (stereo partly drawn) [II-15, fenpropimorph]
inhibition of growth at 0.004 ppm (Septoria glycines; [4]): 1% | inhibition of growth at […] (Septoria glycines; [6]): 71% | inhibition of growth at 1 ppm (Phytophthora infestans; Phytophthora infestans): 26%

mancozeb [II-18]
Observed effect (Septoria tritici; 16 ppm): 3% | Observed effect (Septoria tritici; 63 ppm): 18% | Observed effect (Phakopsora pachyrhizi; 16 ppm): 7% | Observed effect (Phakopsora pachyrhizi; 63 ppm): 0% | Observed effect (Puccinia recondita; 4 ppm): 5% | Observed effect (Botrytis cinerea [2]; 250 ppm): 15% | Observed effect (Alternaria solani): 0%

CC(C)NC(=O)N1CC(=O)N(c2cc(Cl)cc(Cl)c2)C1=O [II-17, iprodione]
inhibition of growth at 1 ppm (Septoria glycines; [7]): 0%

O=C1C2CC=CCC2C(=O)N1SC(Cl)(Cl)Cl (stereo not drawn) [captan]
Observed effect (Septoria tritici; 16 ppm): 0% | Observed effect (Phakopsora pachyrhizi; 1 ppm): 0% | Observed effect (Phakopsora pachyrhizi; 4 ppm): 0%

O=[N+]([O-])c1cc(C(F)(F)F)c(Cl)c([N+](=O)[O-])c1Nc1ncc(C(F)(F)F)cc1Cl [II-40, fluazinam]
inhibition of growth at 0.016 ppm (Septoria glycines; [3]): 7% | inhibition of growth at 1 ppm (Septoria glycines; [7]): 24% | inhibition of growth at 1 ppm (Phytophthora infestans; Phytophthora infestans): 24%

Cc1cc(C2CC2)nc(Nc2ccccc2)n1 [II-36, cyprodinil]
Observed effect (Septoria tritici; 4 ppm): 0%

N#Cc1c(Cl)c(Cl)c(Cl)c(C#N)c1Cl [II-21, chlorothalonil]
inhibition of growth at […] (Septoria glycines; [5]): 6% | Observed effect (Septoria tritici; 4 ppm): 0% | Observed effect (Botrytis cinerea [1]; 1 ppm): 40%

CSc1ncnn1C[C@]1(c2ccc(F)cc2F)O[C@H]1c1ccccc1Cl (relative stereo) [Example I-7, 1-[trans-3-(2-chlorophenyl)-2-(2,4-difluorophenyl)oxiranylmethyl]-5-methylsulfanyl-1H-[1,2,4]triazole]
Observed effect (Botrytis cinerea [1]; 16 ppm): 25%

2-[trans-3-(2-chlorophenyl)-2-(2,4-difluorophenyl)oxiranylmethyl]-2,4-dihydro-[1,2,4]triazole-3-thione [Example I-1]
Observed effect (Septoria glycines; 16 ppm): 30% | Observed effect (Septoria glycines; 63 ppm): 61% | Observed effect (Septoria tritici; 4 ppm): 41% | Observed effect (Phytophthora infestans; 1 ppm): 3% | Observed effect (Phytophthora infestans; 16 ppm): 14% | Observed effect (Phytophthora infestans; 63 ppm): 53% | Observed effect (Botrytis cinerea [2]; 4 ppm): 2% | Observed effect (Colleotrichum truncatum; 1 ppm): 5% | Observed effect (Colleotrichum truncatum; 16 ppm): 6% | Observed effect (Colleotrichum truncatum; 63 ppm): 30%

CNC(=O)/C(=N/OC)c1ccccc1CO/N=C(C)/C(=N/OC)C(/C)=N/OC [II-10, orysastrobin]
Observed effect (Phytophthora infestans; 1 ppm): 22% | Observed effect (Colleotrichum truncatum; 4 ppm): 29% | Observed effect (Botrytis cinerea [1]; 1 ppm): 13%

Cc1ccc(C(C)NC(=O)[C@@H](NC(=O)OC(C)C)C(C)C)cc1 (stereo partly drawn) [II-35, iprovalicarb]
Observed effect (Septoria glycines; 1 ppm): 3%

CO/C=C(/C(=O)OC)c1ccccc1Oc1cc(Oc2ccccc2C#N)ncn1 [II-49, azoxystrobin]
Observed effect (Septoria glycines; 0.016 ppm): 20%

CCCN(CCOc1c(Cl)cc(Cl)cc1Cl)C(=O)n1ccnc1 [II-46, prochloraz]
inhibition of growth at 0.001 ppm (Septoria glycines; [4]): 11% | Observed effect (Septoria tritici; 1 ppm): 0% | Observed effect (Phakopsora pachyrhizi; 1 ppm): 7%

CO/N=C(/C(=O)OC)c1ccccc1COc1ccccc1C [II-8, kresoxim-methyl]
Observed effect (Colleotrichum truncatum; 1 ppm): 27% | Observed effect (Colleotrichum truncatum; 4 ppm): 37%

1-[trans-2-(2,4-difluorophenyl)-3-(2-fluorophenyl)oxiranylmethyl]-5-methylsulfanyl-1H-[1,2,4]triazole [Example I-6]
Observed effect (Botrytis cinerea [1]; 4 ppm): 9%
